Tested on: human PBMCs
Assay: Cytokine/chemokine secretion in human PBMCs (MSD V-PLEX)
Type: cell-based
Experimental: Human buffy coats from healthy individuals were obtained from the Faculty of Medicine of Johannes Gutenberg University, Mainz and used to isolate peripheral blood mononuclear cells (PBMCs) on a Ficoll-Paque™ PLUS (Cytiva, Marlborough, MA, USA) density gradient. In preparation for mRNA transfection, cryopreserved PBMCs were thawed and seeded into 96-well plates at a density of 5×10^5 cells per well in 190 μL RPMI medium supplemented with 1% non-essential amino acids (NEAA), 1% sodium pyruvate and 10% Fetal Bovine Serum (Merck, Germany). Cells were maintained at 37° C. with 5% CO2 until transfection with 0.5, 1.5, 5.0 and 15 μg/ml lipoplex-formulated EPO mRNA (LPX-RNA), as described in Kranz, L. M., et al. (2016) Nature, 534, 396-401. The complexed RNA (10 μl per well) was added in triplicates and supernatants were collected at 24 h after transfection to perform single cell cytotoxicity assay and to measure the cytokine/chemokine profile. To determine the cell viability and the production of selected cytokines/chemokines, supernatants from human PBMCs transfected with LPX-RNA were subjected to XTT cytotoxicity test using Cell Proliferation Kit II (Sigma-Aldrich) and cytokine/chemokine profile analysis using the Meso Scale Discovery V-PLEX Custom Human Biomarkers Proinflammatory and Chemokine Panel (Meso Scale Diagnostics—MSD, Rockville, MD, USA) according to the manufacturer's instructions, respectively. In regards of cytokine/chemokine profile analysis, a sample dilution of 1:5 (supernatant:MSD diluent) was used in each experiment. The levels of IL-6 (Interleukin 6), TNF-α (Tumor necrosis factor alpha), IL-1 (Interleukin 1 beta), IFN-γ (Interferon gamma), MCP-1 (Monocyte Chemoattractant Protein-1), […] (Macrophage inflammatory protein 1 beta) and IL-10 (Interleukin 10) were quantified 24 h after the mRNA transfection. […] This low immunogenicity can be directly attributed to the nucleoside modifications incorporated into the mRNA. To illustrate this, cells treated with lipid-complexed U-containing mRNA capped with compound I′-1, CC114 and CC413 induced much higher proinflammatory cytokine/chemokine responses even at their lowest dose (0.5 μg/ml) when compared to m1Ψ-modified mRNA (FIG. 6).
To test the effect of the cap types and mRNA 5′end on immunogenicity in human peripheral blood monocyte cells (PBMCs) we compared changes in levels of cytokines and chemokines after application of Lipoplex (LPX)-formulated EPO mRNAs. First, we compared the impact of m1Ψ-mRNA capped with I′-6 containing a UAGU 5′end vs. CC413 (AGAAU 5′end) (FIG. 12). […] Second, we compared capped EPO uRNA with I′-6 or I′-1 (FIG. 14). In this case both mRNAs had the same TAGT 5′end. […] Thus, benefit of I′-6 in decreasing the immunogenicity and thus increasing safety was found when I′-6 was used.

In the case of `COC1C(OP(=O)(O)OC[C@H]2O[C@@H](c3cn(C)c(=O)[nH]c3=O)C(O)C2O)[C@@H](COP(=O)(O)OP(=O)([O-])OP(=O)(O)OC[C@H]2O[C@@H](n3c[n+](C)c4c(O)nc(N)nc43)C(O)C2OC)O[C@H]1n1cnc2c(N)ncnc21` (stereo partly shown) [I′-6, m^7G(^3′-OMe)pppA(2′-OMe)pm^1Ψ], the “cytokines (IL-6, TNF-α, IL-1β, IFN-γ), compared with I′-1” value (EPO uRNA, same TAGT 5′end, 24 h after application) is reported as “significantly lower”, the “increase in levels of proinflammatory cytokines and chemokines, compared with CC413” value (LPX-formulated EPO mRNA, across the concentrations tested) is reported as “less of an increase” and the “MIP-1β, compared with CC413” value (LPX-m1Ψ-mRNA, 0.333 and 1 μg/well (1.7 and 5 μg/ml)) is reported as “decrease”. For the same compound, the “cytokines (IL-6, TNF-α, IL-1, IFN-γ), compared with CC413” value (LPX-m1Ψ-mRNA, 1 and 3 μg/well (5 and 15 μg/ml)) was “significant decrease”.

— patent US20260109727A1, “RNA CONSTRUCTS AND USES THEREOF” (BioNTech SE, priority 2022, published 2026)
